Measurements reported in patent US11480576B2, “Conjugated oligomer-based macrocycles for live cell imaging” (THE FLORIDA INTERNATIONAL UNIVERSITY BOARD OF TRUSTEES, priority 2019, dated 2022).

Assay: Photophysical properties of PEMCs (UV-vis absorption, fluorescence, QY)
Format: physicochemical
Method: Chemicals, including solvents, were purchased from Fisher Scientific and used as received. Deuterated solvents were purchased from Cambridge Isotope Laboratories (Cambridge, Mass.). All chemicals and solvents were purchased and used without further purification. Nuclear magnetic resonance (NMR) spectra were recorded on a 400 MHz Avance Bruker NMR spectrometer. ^1H and ^13C NMR chemical shifts are given in ppm relative to Si(CH3)4. The mass spectrometric data were conducted on a Bruker Solarix FT-ICRMS. Data for crystal structure was obtained on a Bruker D8 Quest CMOS diffractometer. The crystal was kept at T=296(2) K during data collection. Using APEX3, the structure was solved with the ShelXT 2014/5 structure solution program, using the intrinsic phasing method. The model was refined with version 2016/6 of ShelXL using full matrix least squares on F^2 minimization, using the Olex2 GUI. Analytical thin layer chromatography (TLC) was performed on TLC Silica gel 60 F254. […] UV-vis spectra were recorded on a Varian Cary 50 Bio spectrophotometer. Fluorescence spectra were obtained using a FluoroLog-3 Spectrofluorometer (Jobin Yvon/Horiba). 9,10-diphenylanthracene (QY=1.0) in cyclohexane was used as a fluorescence standard for QY determination. Fourier transform infrared (FTIR) spectra were recorded on a PerkinElmer Spectrum 100 FTIR Spectrometer. […]

SMILES: COc1cc(C#Cc2ccc(C=O)cc2)c(OC)cc1C#Cc1ccc(C=O)cc1 [1a, 4,4′-((2,5-dimethoxy-1,4-phenylene)bis(ethyne-2,1-diyl))dibenzaldehyde]
- Extinction coefficient (ε): 62700 M⁻¹ cm⁻¹
- Quantum Yield (QY) (9,10-Diphenylanthracene (QY = 1.0) in cyclohexane as fluorescence standard): 31%
